In paper PMC11123841, “Discovery and Synthesis of Hydroxy-L-Proline Blockers of the Neutral Amino Acid Transporters SLC1A4 (ASCT1) and SLC1A5 (ASCT2)” (Molecules, 2024):
Several values for one entry are separate records, joined by “and”; a condition that tells them apart may be missing. Equal values may be shown once.

Columns and labels:
SLC1A1 (EAAT3) = target: T1, SLC1A1 (EAAT3) (Homo sapiens, UniProt P43005); assay: TEVC in oocytes expressing glutamate transporter; type: cell-based; settings: EAAT3 (SLC1A1); 10 µM L-glu current, TEVC; read-out: IC50, block of glutamate current
T1 construct: expressed in transfected cells; host or cells: Xenopus laevis oocytes (cRNA injection)
T1 sequence (P43005 1-524): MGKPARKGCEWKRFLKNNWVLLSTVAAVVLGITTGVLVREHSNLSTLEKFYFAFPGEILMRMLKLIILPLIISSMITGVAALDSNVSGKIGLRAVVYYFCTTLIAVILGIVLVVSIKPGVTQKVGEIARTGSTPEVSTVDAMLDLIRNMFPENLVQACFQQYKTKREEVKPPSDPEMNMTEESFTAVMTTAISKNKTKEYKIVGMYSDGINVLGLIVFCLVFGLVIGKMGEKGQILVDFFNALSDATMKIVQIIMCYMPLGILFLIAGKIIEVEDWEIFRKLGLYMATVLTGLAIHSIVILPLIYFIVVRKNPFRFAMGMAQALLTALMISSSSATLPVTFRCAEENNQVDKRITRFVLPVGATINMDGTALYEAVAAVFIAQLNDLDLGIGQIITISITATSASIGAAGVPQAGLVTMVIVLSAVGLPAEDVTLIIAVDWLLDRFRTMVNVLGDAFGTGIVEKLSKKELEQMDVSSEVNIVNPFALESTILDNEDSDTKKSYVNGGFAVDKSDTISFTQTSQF
Procedure: (§1) Additionally, 4-HP applied at 1 mM was used to assess activity at the glutamate transporters SLC1A3 or SLC1A1.
(§2) BPOHP activity was evaluated against the glutamate transporters paralogs within the SLC1A gene family (SLC1A 1–3) as well as at neutral amino acid transporters that share common ligand substrates with the SLC1 family including SLC38A1,2, and 4 (ATA1, ATA2, ATA3) and heteromeric transporters SLC7A10+SLC3A2 (asc-1/4f2).
(§3) Uptake was halted by washing 3 times with 4 °C ND96 buffer. Oocytes were then lysed in 0.1% Triton X-100, and radioactivity was counted via liquid scintillation. Dose response curves were generated by fitting fractional inhibition (I) to the expression I = Imax × [inhibitor]/([inhibitor] + IC50).
(§4) Two-electrode voltage clamp (TEVC) transporter currents were recorded with a GeneClamp 500 amplifier and Digidata 1320A analog–digital interface (Molecular Devices, San Jose, CA, USA). Electrodes (0.2–1.0 MΩ) were filled with 3M KCl and the recording chamber was grounded with an agar bridge. Data were acquired with Axograph (v1.7.6) and LabChart (v7) and analyzed with Kaleidagraph software (v4.1) (Synergy, Reading, PA, USA). Uncoupled anion currents associated with the transport of substrate and block of SLC1A4 or SLC1A5 mediated leak conductance were recorded in the presence of Ringer with 50% substitution of NaCl by NaSCN to amplify the non-transported anion conductance.
(§5) Figure SM-2 TEVC from oocytes expressing SLC1A1-3 transporters.
(§6) (1 picture or pasted object on this page, not shown here)

SLC1A3 (EAAT1) = target: T2, SLC1A3 (EAAT1) (Homo sapiens, UniProt P43003); assay: TEVC in oocytes expressing glutamate transporter; type: cell-based; settings: EAAT1 (SLC1A3); 10 µM L-glu current, TEVC; read-out: IC50, block of glutamate current
T2 construct: expressed in transfected cells; host or cells: Xenopus laevis oocytes (cRNA injection)
Procedure: as §1, §2, §3, §4, §5, §6

T2 sequence (P43003 whole entry): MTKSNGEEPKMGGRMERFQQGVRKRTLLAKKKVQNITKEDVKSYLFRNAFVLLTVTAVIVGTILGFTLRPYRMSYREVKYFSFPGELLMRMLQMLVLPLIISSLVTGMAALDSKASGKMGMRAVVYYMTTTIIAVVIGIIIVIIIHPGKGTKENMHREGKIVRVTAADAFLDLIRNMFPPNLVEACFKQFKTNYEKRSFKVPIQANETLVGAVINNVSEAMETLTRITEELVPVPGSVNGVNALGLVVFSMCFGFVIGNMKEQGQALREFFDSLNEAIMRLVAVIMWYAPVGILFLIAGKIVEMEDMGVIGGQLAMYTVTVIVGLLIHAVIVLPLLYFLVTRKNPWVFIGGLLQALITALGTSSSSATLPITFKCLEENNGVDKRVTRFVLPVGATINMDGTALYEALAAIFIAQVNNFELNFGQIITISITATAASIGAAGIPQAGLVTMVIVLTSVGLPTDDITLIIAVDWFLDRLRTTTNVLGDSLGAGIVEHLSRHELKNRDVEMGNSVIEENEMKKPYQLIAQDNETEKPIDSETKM

IC50 (SLC1A1 (EAAT3)): 19.5 µM and 25.3 µM | IC50 (SLC1A3 (EAAT1)): 1.75 µM and 2.45 µM
Compound: O=C(O)[C@H]1NC[C@@H](OCc2ccc(-c3ccccc3)cc2)[C@@H]1O [14e]
